We go through 44 sequences from article PMC12624573, “The antigen presentation landscape of cytokine-stressed human pancreatic islets” (Cell reports, 2025).

Experiment [1] deals with CD8+ T cells from PBMC. As to the kind of experiment: IFN-γ ELISpot, PBMC-derived in vitro expanded CD8+ T cell lines. The following applies: PBMC T cell lines, responding donors/donors tested. The format is cell-based, human.
The subject of experiment [2] is islet-derived T cell lines. Nature of the experiment: Cytokine bead array (IFN-γ, TNF-α, IL-10), combined islet-derived T cell lines from donors with T1D. The note with it: for islet derived T cell lines response to A2-S peptide pools or to single peptides: class I (A2) peptide pools or single peptides; for islet derived T cell lines response to A2-S peptide pools or to single peptides / islet derived T cell lines response to DR peptide pools or to single peptides: IFNg, TNFa, IL-10 secretion; for islet derived T cell lines response to DR peptide pools or to single peptides: class II (DR) peptide pools or single peptides.
Protocol: Live pancreas slices (150–200 μm thick) were provided by nPOD. […] Ten slices were digested with 1 mg/mL collagenase-P (Sigma) in PBS at 37°C with shaking with a magnetic stir bar, with tissue dispersal visually monitored. After washing, islets were enriched by hand-picking, and single-islet-derived T-cell lines generated as described[51] with modifications. Single islets were plated in wells of 96 well round bottom plates (CoStar) on irradiated (5000 rads) allogeneic PBMC with AIM-V media (Thermo Fisher Scientific) supplemented with 2 mM L-glutamine, 5 mM HEPES, and 100 U/ml penicillin and 100 μg/mL streptomycin, 0.1 mM each non-essential amino acids, 1 mM sodium pyruvate, and 5% heat-inactivated human male AB serum (Grifols Diagnostic) with 5 μg/mL each of anti-CD3, anti-CD28 (BioLegend), anti-PD-1 (ligand blocking clone EH12.1, BD Biosciences) and anti-Fas (clone SM1/23: Thermo Fisher Scientific) with 20 U/ml IL-2, and 10 ng/mL IL-15 (R&D), and 50 nM mifepristone (Thermo Fisher Scientific). The lymphocytic outgrowth from individual islets was collected, re-plated, allowed to expand with IL-2 and IL-15, and cryopreserved in early passage (P1-P3). For these experiments, 7–10 T cell lines derived from single islets from each donor were combined. Each combined T cell line contained either >60% CD4 or CD8 T cells. For some experiments in order to enriched for any reactive T cells, combined islet-derived T cell lines were stimulated with individual peptides pools with the inclusion of 5 μg/mL soluble anti-CD28 (BD Biosciences), fed with 20 U/mL recombinant IL-2 (Proleukin) and recombinant 10 ng/mL IL-15 (R&D Systems) on Day 1, allowed to rest for 4–6 days, and then re-tested for reactivity to that peptide pool.
For islet-derived combined T cellana lines, either irradiated A*02:01-Hmy.2B-LCL or DRB1*03:01-expressing QBL B-LCL (Millipore Sigma) were pulsed for 2 h with indicated pools of peptides (each peptide at 2.5 μg/mL), washed and then co-cultured at 2x10^4/cells well with combined T cell lines at 5x10^4/cell in 96-well round bottom plates (CoStar) in 5%, heat-inactivated 5% human male AB serum (Grifols Diagnostic) in AimV (ThermoFisher) supplemented with 10 mM HEPES buffer, 2 mM L-glutamine, and 100 U/100 μg/ml penicillin/streptomycin (ThermoFisher) and 2.5 μg/mL soluble anti-CD28 (BD BioSciences). On Day 1, 20 U/mL recombinant IL-2 (Proleukin) and recombinant and 10 ng/mL IL-15 (R&D Systems) was added to all conditions.

Experiment [3] concerns CD4+ T cells from PBMC. Nature of the experiment: IFN-γ ELISpot, PBMC-derived in vitro expanded CD4+ T cell lines. The format is cell-based, human. Set-up: key to T cell recognition by PBMC from a T1D donor (mark E) / T cell recognition by PBMC from a T1D donor: E: T cell recognition by PBMC from a T1D donor was tested and verified; see Figure 5. The following applies: for T1D Donor T cell response / non-T1D Donor T cell response: PBMC T cell lines, responding donors/donors tested; for T cell recognition by PBMC from a T1D donor (mark E) / T cell recognition by PBMC from a T1D donor: MHC-II peptides; for T cell recognition by PBMC from a T1D donor (mark E): tested and verified, see Figure 5; for Number of donors whose CD4 T cells recognized the peptide (IFN-γ ELISpot): T1D donors, PBMC-derived lines (Figure 5J); for IFN-γ ELISpot response of expanded CD4+ T cells: control donor LSLP-074, frequencies ∼10-fold lower than for T1D-004 (Figures 5E, 5F, S5B); for T cell recognition by PBMC from a T1D donor: superscript E on the peptide, G = verified with QBL cells; for IFN-γ ELISpot response of expanded CD4 T cells: control donor LSLP-153, line expanded with megapool HPAP-DR3 + SEC-DR3, tested with individual peptides (Figure S5C).

The mark [4] stands for this setting: SEC (Secretory) A2 Peptides Set.
The mark [5] stands for this setting: DRB1*03:01+ donor 6579, cytokine bead array (Figures 6I–6K).
Setting [6] is: PTM and unmodified native Pool Peptides (pool PTM 1), long peptides.
Where [7] appears, read: PTM and unmodified native Pool Peptides (pool PTM 1), 9-mer peptides.
[8] abbreviates: SEC (Secretory) DR3 Peptides Set.
Where [9] appears, read: donor 6551, cytokine bead array, 48 h (Figures 6A–6C).

Turning to AAAFVNQHL [compound 171], in experiment [1] (setting [4]), the “T1D Donor T cell response” value is reported as 0/6 and the “non-T1D Donor T cell response” value was 0/4. For the same sequence, in experiment [2] (donor 6551 lines), the “islet derived T cell lines response to A2-S peptide pools or to single peptides” value was “donors 6551 and 6578 lines negative”. The “islet derived T cell lines response to A2-S peptide pools or to single peptides” value in experiment [2] (donor 6578 lines) was “donors 6551 and 6578 lines negative”.
In the case of “AVPEEEGPTVVLXPHPSLG [148–1, CHGA peptide 148 with asparagine modified to aspartate]”, in experiment [2] (setting [5]), the “IFN-γ secretion, islet-derived T cell lines” value is “recognized”; the “IL-10 secretion, islet-derived T cell lines” value (shortened to “IL-10 secretion”) is “recognized”; the “TNF-α secretion, islet-derived T cell lines” value is recorded as “recognized”. Moreover, the “islet derived T cell lines response to DR peptide pools or to single peptides” value in experiment [2] (donor 6550 lines) is given as “donor 6550 lines negative”. In experiment [2] (donor 6579 lines, listed as 148-1), the “islet derived T cell lines response to DR peptide pools or to single peptides” value was “donor 6579 lines positive with TNFa and IL-10 secretion”. Also, in experiment [3] (setting [6]), the “T1D Donor T cell response” value is recorded as 0/4 and the “non-T1D Donor T cell response” value is 0/4.
For AVPEEEGPTVVLXPHPSLG [148–2], the “islet derived T cell lines response to DR peptide pools or to single peptides” value in experiment [2] (donor 6579 lines, listed as 148-2) is “donor 6579 lines positive with IFNg, TNFa and IL-10 secretion”.
In the case of EADFAIEAL [150-1], in experiment [1] (setting [7]), the “T1D Donor T cell response” value is given as 0/6 and the “non-T1D Donor T cell response” value is recorded as 0/4. Further, the “islet derived T cell lines response to A2-S peptide pools or to single peptides” value in experiment [2] (donor 6551 lines) is “donor 6551 lines positive with IFNg, TNFa, IL10 secretion”.
Take IGEETVITVDTKAAGKGK [peptide 14]: in experiment [3] (DR3/DQ Set Peptides), the “T1D Donor T cell response” value is on record as 0/4 and the “non-T1D Donor T cell response” value is 0/2.
In the same order, the values of IPGYIVDDSVRVEQ [peptide 19] are 0/4 and 0/2.
As to ITSIVKDSSAARNGL, the “T cell recognition by PBMC from a T1D donor (mark E)” value (“T cell recognition … (mark E)” for short) in experiment [3] is listed as “ITS IVKDSSAAR NGL ^ E”.
Regarding ITSIVKDSSAARNGL [peptide 18], in experiment [3] (DR3/DQ Set Peptides), the “T1D Donor T cell response” value is 2/4 and the “non-T1D Donor T cell response” value was 0/2.
As for KARFAKQPAYTLVDR, the “T cell recognition … (mark E)” value in experiment [3] is “KAR FAKQPAYTL VDR ^ E”.
For KARFAKQPAYTLVDR [compound 24], in experiment [3] (DR3/DQ Set Peptides), the “T1D Donor T cell response” value is given as 3/4 and the “non-T1D Donor T cell response” value is on record as 2/2. Also, in experiment [3], the “Number of donors whose CD4 T cells recognized the peptide (IFN-γ ELISpot)” value is given as “three of the donors” and the “IFN-γ ELISpot response of expanded CD4+ T cells” value is “responded”.
For KQGYQLIEGNQVLHS [compound 20], in experiment [3] (DR3/DQ Set Peptides), the “T1D Donor T cell response” value was 0/4 and the “non-T1D Donor T cell response” value was 0/2.
As to KRPAIWIDTGIHSRE, in experiment [3], the “T cell recognition … (mark E)” value is given as “KRPA IWIDTGIHS RE ^ E”.
As for KRPAIWIDTGIHSRE [peptide 10], in experiment [3] (DR3/DQ Set Peptides), the “T1D Donor T cell response” value is on record as 4/4 and the “non-T1D Donor T cell response” value is reported as 2/2. Also, in experiment [3], the “Number of donors whose CD4 T cells recognized the peptide (IFN-γ ELISpot)” value was “all four donors” and the “IFN-γ ELISpot response of expanded CD4+ T cells” value is reported as “responded”.
In the case of KSIYFVAGL [compound 173], in experiment [1] (setting [4]), the “T1D Donor T cell response” value is given as 0/6 and the “non-T1D Donor T cell response” value is recorded as 0/4. Moreover, the “islet derived T cell lines response to A2-S peptide pools or to single peptides” value in experiment [2] (donor 6551 lines) was “donors 6551 and 6578 lines negative”. The “islet derived T cell lines response to A2-S peptide pools or to single peptides” value in experiment [2] (donor 6578 lines) is “donors 6551 and 6578 lines negative”.
Take LEKDIISDTSGDFRK [compound 8]: in experiment [3] (DR3/DQ Set Peptides), the “T1D Donor T cell response” value is reported as 0/4 and the “non-T1D Donor T cell response” value is 0/2.
Take LNKSINPDEAVAYGAA: the “T cell recognition by PBMC from a T1D donor” value in experiment [3] is recorded as “LNKS INPDEAVAY GAA ^ E”.
For the sequence LNKSINPDEAVAYGAA [peptide 15], in experiment [3] (DR3/DQ Set Peptides), the “T1D Donor T cell response” value is recorded as 1/4 and the “non-T1D Donor T cell response” value is 0/2.
In the case of NPAEFVVNTSNAGAG, the “T cell recognition … (mark E)” value in experiment [3] is recorded as “NPAE FVVNTSNAG AG ^ E”.
For the sequence NPAEFVVNTSNAGAG [compound 22], in experiment [3] (DR3/DQ Set Peptides), the “T1D Donor T cell response” value is on record as 0/4 and the “non-T1D Donor T cell response” value was 0/2.
NPANPAILSEASAPIPHDG [compound 27]: in experiment [3] (DR3/DQ Set Peptides), the “T1D Donor T cell response” value is on record as 0/4 and the “non-T1D Donor T cell response” value is 0/2.
With NYPSLELDKMAHG, the “T cell recognition … (mark E)” value in experiment [3] is reported as “NYPSLELDKMAHG ^ E”.
As for “NYPSLELDKMAHG [peptide 182, secretory hormone eluted peptide from CHGB, pool SEC DR3]”, in experiment [2] (setting [5]), the “IL-10 secretion” value is “recognized”. Further, the “islet derived T cell lines response to DR peptide pools or to single peptides” value in experiment [2] (donor 6579 lines) is on record as “donor 6579 lines positive with IL-10 secretion”. Further, in experiment [3] (setting [8]), the “T1D Donor T cell response” value is 0/4 and the “non-T1D Donor T cell response” value was 0/4.
Consider QDPELPDKNMFTINRNTGVIS, for which the “T cell recognition … (mark E)” value in experiment [3] is given as “QDPELPDKNM FTINRNTGV IS ^ E”.
With QDPELPDKNMFTINRNTGVIS [compound 29], in experiment [3] (DR3/DQ Set Peptides), the “T1D Donor T cell response” value was 2/4 and the “non-T1D Donor T cell response” value was 0/2.
As to QSIEGGAHEGLQHLGP, the “T cell recognition by PBMC from a T1D donor” value in experiment [3] was “QS IEGGAHEGL QHLGP ^ E”.
With “RPLNEQIAEAEEED [compound 187, secretory hormone eluted peptide from SCG3, pool SEC DR3]”, in experiment [3] (setting [8]), the “T1D Donor T cell response” value was 0/4 and the “non-T1D Donor T cell response” value was 1/4. Also, the “IFN-γ ELISpot response of expanded CD4 T cells” value in experiment [3] was “IFN-γ responses”.
For RQRYEILTPNSIPK, in experiment [3], the “T cell recognition … (mark E)” value was “RQR YEILTPNS IPK ^ E”.
As for RQRYEILTPNSIPK [compound 26], in experiment [3] (DR3/DQ Set Peptides), the “T1D Donor T cell response” value is on record as 2/4 and the “non-T1D Donor T cell response” value was 0/2.
As to RSAAVLALL [compound 175], in experiment [1] (setting [4]), the “T1D Donor T cell response” value is given as 1/5 and the “non-T1D Donor T cell response” value is listed as 0/4. In experiment [2] (setting [9]), the “IFN-γ secretion, islet-derived T cell lines” value was “strong”; the “IL-10 secretion” value is recorded as “strong”; the “TNF-α secretion, islet-derived T cell lines” value was “strong”. Also, in experiment [2] (donor 6551 lines), the “islet derived T cell lines response to A2-S peptide pools or to single peptides” value is recorded as “donor 6551 lines positive for IFNg, TNFa, IL10 secretion”.
With SANLHGGDLVANYPY [compound 155], in experiment [3] (HPAP-DR3 Pool Peptides), the “T1D Donor T cell response” value is given as 0/4 and the “non-T1D Donor T cell response” value is on record as 0/4.
As to “SQGLVDREKGLSAEPGWQA [compound 180, secretory hormone eluted peptide from CHGA, pool SEC DR3]”, in experiment [3] (setting [8]), the “T1D Donor T cell response” value was 0/4 and the “non-T1D Donor T cell response” value is reported as 1/4. Moreover, the “IFN-γ ELISpot response of expanded CD4 T cells” value in experiment [3] is reported as “IFN-γ responses”.
In the same order, the values of “SSPLDNKLNVEDVDSTKN [compound 188, secretory hormone eluted peptide from SCG3, pool SEC DR3]” are 0/4, 1/4 and “IFN-γ responses”.
For “SVPHFSDEDKDPE [compound 147, non-modified native peptide, pool PTM DR3]”, in experiment [3] (setting [6]), the “T1D Donor T cell response” value is listed as 0/4 and the “non-T1D Donor T cell response” value is on record as 0/4.
In the case of “SVPHFXDEDKDPE [147-1, PTM peptide, X=phosphoserine, pool PTM DR3]”, in experiment [3] (setting [6]), the “T1D Donor T cell response” value was 0/4 and the “non-T1D Donor T cell response” value is listed as 0/4.
With TPGNALVVDPKKPFRK, in experiment [3], the “T cell recognition … (mark E)” value was “TPGNA LVVDPKKPF RK ^ E”.
As to TPGNALVVDPKKPFRK [compound 13], in experiment [3] (DR3/DQ Set Peptides), the “T1D Donor T cell response” value is on record as 3/4 and the “non-T1D Donor T cell response” value was 1/2. The “IFN-γ ELISpot response of expanded CD4+ T cells” value in experiment [3] is on record as “responded”.
In the case of VPGNALVVDPRRPFRK, the “T cell recognition … (mark E)” value in experiment [3] was “VPGNA LVVDPRRPF RK ^ E”.
On to VPGNALVVDPRRPFRK [compound 12], for which, in experiment [3] (DR3/DQ Set Peptides), the “T1D Donor T cell response” value was 1/4 and the “non-T1D Donor T cell response” value is given as 0/2.
For VPIDIDKTKVQNIHPVESA [compound 4], in that order: 0/4 and 0/2.
Regarding VPIDIDKTKVQNIHPVESA [compound 152], in experiment [3] (HPAP-DR3 Pool Peptides), the “T1D Donor T cell response” value is 0/4 and the “non-T1D Donor T cell response” value is 0/4.
Regarding WRPSLVPASAENVNKA, in experiment [3], the “T cell recognition … (mark E)” value was “WRPS LVPASAENV NKA ^ E”.
Regarding WRPSLVPASAENVNKA [compound 23], in experiment [3] (DR3/DQ Set Peptides), the “T1D Donor T cell response” value was 2/4 and the “non-T1D Donor T cell response” value is on record as 0/2.
For YYNLEKDVKQFRRKDS [peptide 3], in that order: 0/4 and 0/2.
Turning to YYYIQQDTKGDYQK [peptide 7], in experiment [3] (DR3/DQ Set Peptides), the “T1D Donor T cell response” value is given as 0/4 and the “non-T1D Donor T cell response” value is on record as 0/2.
